Assay results published in patent publication US20230122344A1, “ANTAGONISTS OF THE MUSCARINIC ACETYLCHOLINE RECEPTOR M4” (Vanderbilt University, priority 2019, published 2023).

Target: T1, Human M4 (Homo sapiens, UniProt P08173)
T1 construct: expressed in transfected cells; host or cells: CHO-K1 (ATCC), co-transfected with chimeric G protein Gqi5
T1 sequence (P08173 1-479): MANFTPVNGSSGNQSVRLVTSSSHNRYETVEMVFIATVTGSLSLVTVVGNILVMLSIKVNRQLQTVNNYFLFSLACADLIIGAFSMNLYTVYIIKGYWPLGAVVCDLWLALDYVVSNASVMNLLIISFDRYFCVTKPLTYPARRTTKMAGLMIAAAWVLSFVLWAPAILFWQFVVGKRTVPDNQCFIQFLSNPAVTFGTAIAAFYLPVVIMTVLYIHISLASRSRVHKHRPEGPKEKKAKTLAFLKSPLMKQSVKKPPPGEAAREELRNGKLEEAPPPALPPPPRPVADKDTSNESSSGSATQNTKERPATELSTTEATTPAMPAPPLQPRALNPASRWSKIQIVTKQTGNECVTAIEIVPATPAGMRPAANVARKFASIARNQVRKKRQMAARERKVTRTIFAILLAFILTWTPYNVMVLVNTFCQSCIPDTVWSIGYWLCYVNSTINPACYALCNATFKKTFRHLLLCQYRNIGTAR
Test: mAChR M4 cell-based functional assay (calcium flux, antagonism of EC80 acetylcholine response)
Settings: M4/Gqi5/CHO-K1 cells; for remaining activity at 30 µM: CHO-K1, % ACh maximum at 30 μM, read-out: Human M4 Emin; for IC50: decrease of response elicited by EC80 acetylcholine
Method: Human or rat M4 cDNA, along with the chimeric G protein Gqi5, were transfected into Chinese hamster ovary (CHO-K1) cells purchased from the American Type Culture Collection using Lipofectamine2000. M4/Gqi5/CHO cells were grown in Ham's F-12 medium containing 10% heat-inactivated fetal bovine serum (FBS), 20 mM HEPES, 500 μg/mL G418 sulfate, and 200 μg/mL Hygromycin B.
For high throughput measurement of agonist-evoked increases in intracellular calcium, CHO-K1 cells stably expressing muscarinic receptors were plated in growth medium lacking G418 and hygromycin at 15,000 cells/20 μL/well in Greiner 384-well black-walled, tissue culture (TC)-treated, clear-bottom plates (VWR). Cells were incubated overnight at 37° C. and 5% CO2. The next day, cells were washed using an ELX 405 (BioTek) with assay buffer; the final volume was then aspirated to 20 μL. Next, 20 μL of a 2.3 μM stock of Fluo-4/acetoxymethyl ester (Invitrogen, Carlsbad, Calif.), prepared as a 2.3 mM stock in DMSO and mixed in a 1:1 ratio with 10% (w/v) Pluronic F-127 and diluted in assay buffer, was added to the wells and the cell plates were incubated for 50 min at 37° C. and 5% CO2. Dye was removed by washing with the ELX 405 and the final volume was aspirated to 20 μL. Compound master plates were formatted in a 10 point concentration-response curve (CRC) format (1:3 dilutions) in 100% DMSO with a starting concentration of 10 or 1 mM using a BRAVO liquid handler (Agilent). Test compound CRCs were then transferred to daughter plates (240 nL) using the Echo acoustic plate reformatter (Labcyte, Sunnyvale, Calif.) and then diluted into assay buffer (40 μL) to a 2× stock using a Thermo Fisher Combi (Thermo Fisher Scientific, Waltham, Mass.).
Calcium flux was measured using the Functional Drug Screening System (FDSS) 6000 or 7000 (Hamamatsu Corporation, Tokyo, Japan) as an increase in the fluorescent static ratio. Compounds were applied to cells (20 μL, 2×) using the automated system of the FDSS at 2 seconds into the protocol and the data were collected at 1 Hz. At 143 s, 10 μL of an EC20 concentration of the muscarinic receptor agonist acetylcholine was added (5×), followed by the addition of 12 μL of an EC80 concentration of acetylcholine at the 268 s time point (5×). Agonist activity was analyzed as a concentration-dependent increase in calcium mobilization upon compound addition. Positive allosteric modulator activity was analyzed as a concentration-dependent increase in the EC20 acetylcholine response. Antagonist activity was analyzed as a concentration-dependent decrease in the EC80 acetylcholine response; for the purposes of the tables herein, an IC50 (inhibitory concentration 50) was calculated as a concentration-dependent decrease of the response elicited by an EC80 concentration of acetylcholine. Concentration-response curves were generated using a four-parameter logistical equation in XLFit curve fitting software (IDBS, Bridgewater, N.J.) for Excel (Microsoft, Redmond, Wash.) or Prism (GraphPad Software, Inc., San Diego, Calif.) or the Dotmatics software platform (Dotmatics, Bishop's Stortford, UK).
Compounds were synthesized as described above. Activity (IC50 and Emin) was determined in the mAChR M4 cell-based functional assay as described above and the data are shown in Table 2.

remaining activity at 30 µM [%]	IC50 [nM]	SMILES
3	1.08	Cc1cc(N[C@H]2C[C@@H]3CN(CC4CCOCC4)C[C@@H]3C2)nnc1-c1ccc2nn(C)cc2c1C [compound 16, (3aR,5s,6aS)-N-(6-(2,4-dimethyl-2H-indazol-5-yl)-5-methylpyridazin-3-yl)-2-((tetrahydro-2H-pyran-4-yl)methyl)octahydrocyclopenta[c]pyrrol-5-amine]
3	0.58	[2H]C([2H])(C1CCOCC1)N1C[C@H]2C[C@H](Nc3cc(C)c(-c4cc(F)ccc4F)nn3)C[C@H]2C1 [compound 17, (3aR,5s,6aS)-N-(6-(2,5-difluorophenyl)-5-methylpyridazin-3-yl)-2-((tetrahydro-2H-pyran-4-yl)methyl-d2)octahydrocyclopenta[c]pyrrol-5-amine]
3	0.44	[2H]C([2H])(C1CCOCC1)N1C[C@H]2C[C@H](Nc3cc(C)c(-c4cc(F)ccc4Cl)nn3)C[C@H]2C1 [compound 18, (3aR,5s,6aS)-N-(6-(2-chloro-5-fluorophenyl)-5-methylpyridazin-3-yl)-2-((tetrahydro-2H-pyran-4-yl)methyl-d2)octahydrocyclopenta[c]pyrrol-5-amine]
4	1.62	[2H]C([2H])(C1CCOCC1)N1C[C@H]2C[C@H](Nc3cc(C)c(-c4ccc5nn(C)cc5c4)nn3)C[C@H]2C1 [compound 19, (3aR,5s,6aS)-N-(5-methyl-6-(2-methyl-2H-indazol-5-yl)pyridazin-3-yl)-2-((tetrahydro-2H-pyran-4-yl)methyl-d2)octahydrocyclopenta[c]pyrrol-5-amine]
3	0.54	[2H]C([2H])(C1CCOCC1)N1C[C@H]2C[C@H](Nc3nnc(-c4cc(F)ccc4C)cc3C)C[C@H]2C1 [compound 20, (3aR,5s,6aS)-N-(6-(5-fluoro-2-methylphenyl)-4-methylpyridazin-3-yl)-2-((tetrahydro-2H-pyran-4-yl)methyl-d2)octahydrocyclopenta[c]pyrrol-5-amine]
3	1.22	[2H]C([2H])(C1CCOCC1)N1C[C@H]2C[C@H](Nc3nnc(-c4cccc(F)c4)cc3C)C[C@H]2C1 [compound 21, (3aR,5s,6aS)-N-(6-(3-fluorophenyl)-4-methylpyridazin-3-yl)-2-((tetrahydro-2H-pyran-4-yl)methyl-d2)octahydrocyclopenta[c]pyrrol-5-amine]
4	1.82	[2H]C([2H])(C1CCOCC1)N1C[C@H]2C[C@H](Nc3nnc(-c4ccc5nn(C)cc5c4)cc3C)C[C@H]2C1 [compound 22, (3aR,5s,6aS)-N-(4-methyl-6-(2-methyl-2H-indazol-5-yl)pyridazin-3-yl)-2-((tetrahydro-2H-pyran-4-yl)methyl-d2)octahydrocyclopenta[c]pyrrol-5-amine]
3	0.59	[2H]C([2H])(C1CCOCC1)N1C[C@H]2C[C@H](Nc3nnc(-c4ccc5nn(C)cc5c4C)cc3C)C[C@H]2C1 [compound 23, (3aR,5s,6aS)-N-(6-(2,4-dimethyl-2H-indazol-5-yl)-4-methylpyridazin-3-yl)-2-((tetrahydro-2H-pyran-4-yl)methyl-d2)octahydrocyclopenta[c]pyrrol-5-amine]
4	1.63	[2H]C([2H])(C1CCOCC1)N1C[C@H]2C[C@H](Nc3nnc(-c4ccccc4)cc3C)C[C@H]2C1 [compound 24, (3aR,5s,6aS)-N-(4-methyl-6-phenylpyridazin-3-yl)-2-((tetrahydro-2H-pyran-4-yl)methyl-d2)octahydrocyclopenta[c]pyrrol-5-amine]
3	1.68	[2H]C([2H])(C1CCOCC1)N1C[C@H]2C[C@H](Nc3nnc(-c4cc(F)ccc4F)cc3C(F)F)C[C@H]2C1 [compound 25, (3aR,5s,6aS)-N-(4-(difluoromethyl)-6-(2,5-difluorophenyl)pyridazin-3-yl)-2-((tetrahydro-2H-pyran-4-yl)methyl-d2)octahydrocyclopenta[c]pyrrol-5-amine]
3	263	[2H]C([2H])(C1CCOCC1)N1C[C@H]2C[C@H](Nc3nnc(-c4cc(F)ccc4C)cc3C3CC3)C[C@H]2C1 [compound 26, (3aR,5s,6aS)-N-(4-cyclopropyl-6-(5-fluoro-2-methylphenyl)pyridazin-3-yl)-2-((tetrahydro-2H-pyran-4-yl)methyl-d2)octahydrocyclopenta[c]pyrrol-5-amine]
4	719	[2H]C([2H])(C1CCOCC1)N1C[C@H]2C[C@H](Nc3nnc(-c4cc(F)ccc4F)cc3C3CC3)C[C@H]2C1 [compound 27, (3aR,5s,6aS)-N-(4-cyclopropyl-6-(2,5-difluorophenyl)pyridazin-3-yl)-2-((tetrahydro-2H-pyran-4-yl)methyl-d2)octahydrocyclopenta[c]pyrrol-5-amine]
3	186	[2H]C([2H])(C1CCOCC1)N1C[C@H]2C[C@H](Nc3nnc(N4CCC(F)(F)CC4)cc3C3CC3)C[C@H]2C1 [compound 28, (3aR,5s,6aS)-N-(4-cyclopropyl-6-(4,4-difluoropiperidin-1-yl)pyridazin-3-yl)-2-((tetrahydro-2H-pyran-4-yl)methyl-d2)octahydrocyclopenta[c]pyrrol-5-amine]
2	60.7	[2H]C([2H])(C1CCOCC1)N1C[C@H]2C[C@H](Nc3nnc(N4CCC(F)(F)CC4)cc3C3CCC3)C[C@H]2C1 [compound 29, (3aR,5s,6aS)-N-(4-cyclobutyl-6-(4,4-difluoropiperidin-1-yl)pyridazin-3-yl)-2-((tetrahydro-2H-pyran-4-yl)methyl-d2)octahydrocyclopenta[c]pyrrol-5-amine]
2	116	[2H]C([2H])(C1CCOCC1)N1C[C@H]2C[C@H](Nc3nnc(-c4cc(F)ccc4F)cc3C3CCC3)C[C@H]2C1 [compound 30, (3aR,5s,6aS)-N-(4-cyclobutyl-6-(2,5-difluorophenyl)pyridazin-3-yl)-2-((tetrahydro-2H-pyran-4-yl)methyl-d2)octahydrocyclopenta[c]pyrrol-5-amine]
3	34.5	[2H]C([2H])(C1CCOCC1)N1C[C@H]2C[C@H](Nc3nnc(-c4cc(F)ccc4C)cc3C3CCC3)C[C@H]2C1 [compound 31, (3aR,5s,6aS)-N-(4-cyclobutyl-6-(5-fluoro-2-methylphenyl)pyridazin-3-yl)-2-((tetrahydro-2H-pyran-4-yl)methyl-d2)octahydrocyclopenta[c]pyrrol-5-amine]
